# Laboratory results taken from ChEMBL document CHEMBL2086269, “Identification of new snake venom metalloproteinase inhibitors using compound screening and rational Peptide design” (ACS Med Chem Lett, 2012).
# Structures can show the parent of a compound that is named as a salt. Activity calls are given as the source filed them. No cut-off for these calls is given here. Residues, ends and D or L forms follow the SMILES beside them. *: point of attachment. NHOH = ON*
# Biological target: T1, Snake venom metalloproteinase BaP1 (Bothrops asper, UniProt P83512)
# T1 sequence (P83512 whole entry): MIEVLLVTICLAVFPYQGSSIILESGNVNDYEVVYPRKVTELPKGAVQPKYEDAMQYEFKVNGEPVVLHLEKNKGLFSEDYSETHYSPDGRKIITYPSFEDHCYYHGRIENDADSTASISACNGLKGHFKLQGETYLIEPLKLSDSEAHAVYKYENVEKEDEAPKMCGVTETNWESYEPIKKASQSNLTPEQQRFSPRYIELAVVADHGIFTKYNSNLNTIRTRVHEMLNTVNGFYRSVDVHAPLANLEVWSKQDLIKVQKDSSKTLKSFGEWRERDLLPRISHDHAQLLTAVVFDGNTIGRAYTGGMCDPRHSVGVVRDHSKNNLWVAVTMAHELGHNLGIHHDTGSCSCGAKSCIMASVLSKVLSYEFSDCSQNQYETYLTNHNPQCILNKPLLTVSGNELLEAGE
# Assay: Inhibition of snake venom BaP1 using Abz-Ala-Gly-Leu-Ala-Nba as substrate incubated for 30 mins prior to substrate addition by fluorescence spectrophotometry
row,SMILES,IC50
1,CC(C)C[C@H](NC(=O)[C@@H](N)Cc1c[nH]c2ccccc12)C(=O)N[C@@H](Cc1ccc(O)cc1)C(N)=O (H-Trp-Leu-Tyr-NH2),402 µM
2,Nc1ccc(/N=N/c2ccccc2)c(N)n1 [PHENAZOPYRIDINE HYDROCHLORIDE],54.3 µM
3,CC(C)C[C@H](NC(=O)[C@@H](N)Cc1c[nH]c2ccccc12)C(=O)N[C@@H](Cc1ccccc1)C(=O)NO (H-Trp-Leu-Phe-{NHOH}),34.2 µM
4,CC(C)C[C@H](NC(=O)[C@@H](N)Cc1ccccc1)C(=O)N[C@@H](Cc1cnc[nH]1)C(=O)NO (H-Phe-Leu-His-{NHOH}),108 µM
5,CC(C)C[C@H](NC(=O)[C@@H](N)Cc1ccccc1)C(=O)N[C@@H](Cc1ccccc1)C(=O)NO (H-Phe-Leu-Phe-{NHOH}),0.5 µM
6,CC(C)C[C@H](NC(=O)[C@@H](N)Cc1ccccc1)C(=O)N[C@@H](CCCNC(=N)N)C(=O)NO (H-Phe-Leu-Arg-{NHOH}),4.6 µM
7,CC(C)C[C@H](NC(=O)[C@@H](N)Cc1ccccc1)C(=O)N[C@@H](Cc1ccccc1)C(N)=O (H-Phe-Leu-Phe-NH2),825 µM
8,CC(C)C[C@H](NC(=O)[C@@H](N)Cc1c[nH]c2ccccc12)C(=O)N[C@@H](Cc1cnc[nH]1)C(=O)NO (H-Trp-Leu-His-{NHOH}),58.4 µM
9,COc1ccc2c3c([nH]c2c1)C(C)=NCC3 [HARMALINE HYDROCHLORIDE DIHYDRATE],70.4 µM
10,CC(C)C[C@H](NC(=O)[C@@H](N)Cc1ccccc1)C(=O)N[C@@H](Cc1ccc(O)cc1)C(N)=O (H-Phe-Leu-Tyr-NH2),> 1000 µM
11,CC(C)C[C@H](NC(=O)[C@@H](N)Cc1c[nH]c2ccccc12)C(=O)N[C@@H](CCCNC(=N)N)C(=O)NO,217 µM
12,CC(C)C[C@H](NC(=O)[C@@H](N)Cc1c[nH]c2ccccc12)C(=O)N[C@@H](Cc1ccc(O)cc1)C(=O)NO (H-Trp-Leu-Tyr-{NHOH}),46.2 µM
13,COc1cc2c(cc1OC)-c1cc3ccc(OC)c(OC)c3c[n+]1CC2 [PALMATINE CHLORIDE],93.3 µM
14,CNC(=O)[C@H](Cc1ccccc1)NC(=O)[C@H](CC(C)C)[C@H](CSc1cccs1)C(=O)NO [BATIMASTAT],1.2 µM
15,CC(C)C[C@H](NC(=O)[C@@H](N)Cc1ccccc1)C(=O)N[C@@H](Cc1ccc(O)cc1)C(=O)NO (H-Phe-Leu-Tyr-{NHOH}),30.9 µM
16,CC(C)C[C@H](NC(=O)[C@@H](N)Cc1c[nH]c2ccccc12)C(=O)N[C@@H](Cc1ccccc1)C(N)=O (H-Trp-Leu-Phe-NH2),> 1000 µM
17,NC(=O)N/N=C/c1ccc([N+](=O)[O-])o1 [NITROFURAZONE],88.1 µM

# System: not listed separately
# Assay: Displacement of PAC1 from Zn2+ incubated for 30 mins prior to PAC1 addition measured after 30 mins by spectrophotometry
row,SMILES,Activity
1,CC(C)C[C@H](NC(=O)[C@@H](N)Cc1ccccc1)C(=O)N[C@@H](Cc1ccccc1)C(=O)NO (H-Phe-Leu-Phe-{NHOH}),Active
2,CC(C)C[C@H](NC(=O)[C@@H](N)Cc1ccccc1)C(=O)N[C@@H](CCCNC(=N)N)C(=O)NO (H-Phe-Leu-Arg-{NHOH}),Active
